Laboratory results from patent US20080131920A1, “Ion flux in biological processes, and methods related thereto” (priority 2005, published 2008).
Where “and” joins values, the source holds several entries; their conditions need not be identical. Identical values can stand only once.

Test system: H3P-positive cells
Assay: H3P-positive proliferating cell quantification in amputated larvae
Type: in vivo, Xenopus laevis
Conditions: for Average count of H3P-positive cells / Individual counts of H3P-positive cells: medial (flank) region
Excerpt: To gain insight into the cellular mechanisms by which the V-ATPase participates in regeneration, we characterized the pattern of proliferating cells during regeneration, using an antibody to the phosphorylated Histone 3B—a standard marker of cells in the G2/M transition of the cell cycle, useful for identifying mitotic cells in regenerating systems including Xenopus (Saka and Smith, 2001, Dev Biol 229: 307-18; Sanchez Alvarado, 2003, Current Opinion in Genetics & Development 13: 438-444). At 24 hpa, this subset of proliferating cells is homogenously distributed throughout the growing tail (FIG. 14A). […]. […].
H3P staining marks cells in the G2/M transition of the cell cycle, and is commonly used for identifying mitotic cells in regenerating systems including Xenopus (Saka and Smith, 2001, Dev Biol 229: 307-18; Sanchez Alvarado, 2003, Current Opinion in Genetics & Development 13: 438-444). Fixed specimens at the stages indicated were processed for H3P staining as above using an alkaline-phosphatase secondary. Bleaching of the natural pigments in samples allowed easy counting of H3P-positive cells. The close-up panel to the left illustrates the distinction between purple alkaline-phosphatase signal (H3P-positive nuclei) and brown melanocytes. […] Between 4 and 6 samples were counted for each stage and each condition. Similar numbers were obtained in immunohistochemistry performed on sections as in wholemounts and in fluorescent detection (i.e., reagent penetration and chromogenic staining are not confounding factors in H3P-positive cell detection). […]

In the case of C/C=C/[C@H]1O[C@@](O)([C@@H](C)[C@H](O)[C@H](C)[C@H]2OC(=O)/C(OC)=C/C(C)=C/[C@@H](C)[C@@H](O)[C@@H](CC)[C@@H](O)[C@H](C)C/C(C)=C/C=C/[C@@H]2OC)C[C@@H](O)[C@@H]1C [concanamycin], the “Average count of H3P-positive cells” value (24 hpa) is reported as 51, the “Individual counts of H3P-positive cells” value (24 hpa) is reported as 79 and 26 and 45 and 53 and the “Average count of H3P-positive cells” value (48 hpa) is reported as 49. For the same compound, the “Individual counts of H3P-positive cells” value (48 hpa) was 39 and 58 and 51 and 46, the “reduction in the number of proliferating cells” value (by 24 hpa, general (flank)) was 3 fold and the “change in number of proliferating cells in the mid-flank between 24 and 48 hpa” value (in vivo) was “does not change significantly”.
